Assay results reported in PubChem BioAssay AID2696 (Johns Hopkins Ion Channel Center, 2010).
Values joined by “and” are separate entries in the source; they are usually repeats but may differ in a detail not shown here. Identical values can stand only once.

Target: Short transient receptor potential channel 6 (Mus musculus) (UniProt Q61143)
Test: TRPC6 inhibitor potency, dose response, cell-based, mouse TRPC6, HEK293, membrane potential (AID 2696)
Details: TRPC6-expressing HEK293 cells, membrane potential dye fluorescence, acetylcholine-stimulated

Short transient receptor potential channel 6 (Mus musculus), sequence (Q61143 whole entry, looked up): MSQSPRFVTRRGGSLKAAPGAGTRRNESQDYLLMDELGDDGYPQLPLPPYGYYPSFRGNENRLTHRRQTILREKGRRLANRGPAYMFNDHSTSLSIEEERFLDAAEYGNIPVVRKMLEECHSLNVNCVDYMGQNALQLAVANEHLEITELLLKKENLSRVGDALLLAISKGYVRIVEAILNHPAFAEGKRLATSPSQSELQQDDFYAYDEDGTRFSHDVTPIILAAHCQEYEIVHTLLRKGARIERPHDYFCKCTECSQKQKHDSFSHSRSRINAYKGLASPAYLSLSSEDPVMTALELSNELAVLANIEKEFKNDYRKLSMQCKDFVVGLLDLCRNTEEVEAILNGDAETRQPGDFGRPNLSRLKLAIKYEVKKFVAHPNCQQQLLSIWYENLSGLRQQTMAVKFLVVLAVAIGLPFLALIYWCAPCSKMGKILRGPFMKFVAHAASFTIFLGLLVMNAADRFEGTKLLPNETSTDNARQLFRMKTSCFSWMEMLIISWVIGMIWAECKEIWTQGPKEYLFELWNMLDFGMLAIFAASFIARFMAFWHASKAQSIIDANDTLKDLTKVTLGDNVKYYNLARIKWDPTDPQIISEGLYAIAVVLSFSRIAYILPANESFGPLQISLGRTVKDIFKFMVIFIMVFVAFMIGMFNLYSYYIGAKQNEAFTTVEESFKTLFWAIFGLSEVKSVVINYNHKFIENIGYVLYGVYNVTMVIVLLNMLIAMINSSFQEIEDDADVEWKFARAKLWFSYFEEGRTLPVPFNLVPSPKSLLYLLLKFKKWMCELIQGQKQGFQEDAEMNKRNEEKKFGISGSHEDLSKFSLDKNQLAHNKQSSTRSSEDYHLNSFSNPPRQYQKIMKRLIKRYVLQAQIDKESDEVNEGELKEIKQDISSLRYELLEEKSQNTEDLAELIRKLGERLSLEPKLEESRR

Point of comparison: Cc1cc(N=Nc2ccccc2)c(NCC(O)C(O)C(O)CO)cc1C (stereo not drawn), IC50 50.1 µM. Against it:
- Cc1cc(Nc2cccc([N+](=O)[O-])c2)c2cccc(C)c2n1 — within 1.5-fold, 44.7 µM
- COc1ccccc1C(=O)NCC1CCN(c2ccc(S(=O)(=O)N3CCOCC3)cc2)CC1 — 2.5-fold lower, 19.9 µM
- CCOC(=O)N1CCN(S(=O)(=O)c2cc(Br)cnc2N)CC1 — 2.5-fold lower, 19.9 µM
- CCc1ccc(N=C2N=C(N)c3ccccc32)cc1 — the same, 50.1 µM
- Cc1ccc(S(=O)(=O)NNC(=O)C2CCN(Cc3ccccc3)CC2)cc1 — 18-fold lower, 2.82 µM
- CCOC(=O)c1ccc(NC(=S)NCc2ccco2)cc1 — the same, 50.1 µM
- CCOC(=O)c1c(CNc2ccncc2)n(C)c2cc(Br)c(O)cc12 — within 1.5-fold, 44.7 µM
- Cc1nnsc1C(=O)N/N=C/c1ccc2ccccc2c1O — 5.6-fold lower, 8.91 µM
- CN(CCOC(=O)C1c2ccccc2Oc2ccccc21)C(C)(C)C — 56-fold lower, 0.89 µM
- Clc1ccc(C(c2ccccc2)N2CCNCC2)cc1 (stereo not drawn) — the same, 50.1 µM
- c1ccc(CNc2c3ccccc3nc3ccccc23)cc1 — within 1.5-fold, 70.8 µM
- Cc1cc(N(CCO)CCO)ccc1N=Nc1cc(F)ccc1F — the same, 50.1 µM
- Nc1c2c(nc3ccn(Cc4ccccc4)c(=O)c13)CCC2 — within 1.5-fold, 70.8 µM
- CN(C)c1cc(NC(=O)CN2CCCC2)c2ccccc2n1 — within 1.5-fold, 44.7 µM
- CC(C)NCC(O)Cn1c2c(c3ccccc31)CCc1c-2cnn1-c1ccccc1 (stereo not drawn) — 1.6-fold higher, 79.4 µM
- CC(=O)OCC[N+](C)(C)C — 32-fold lower, 1.58 µM
- COc1ccc(CCC(C)NC2C3CC4CC(C3)CC2C4)cc1 (stereo not drawn) — within 1.5-fold, 44.7 µM
- COc1ccc(OC)c2sc(N(CCN(C)C)C(=O)c3ccc4ccccc4c3)nc12 — within 1.5-fold, 70.8 µM
- COc1cccc(Nc2nc(NCCO)c3ccccc3n2)c1 — within 1.5-fold, 63.1 µM
- Cc1ccc(OCCCCCCN2CCNCC2)c(Br)c1 — 1.6-fold higher, 79.4 µM
- Cc1c(C)n(Cc2ccccc2)c2ccc(C(=O)OCCCN(C)C)cc12 — within 1.5-fold, 44.7 µM
- CCOc1ccc(NC(=O)c2c(NC(=O)CN3CCN(C)CC3)sc3c2CCC3)cc1 — within 1.5-fold, 44.7 µM
- N#CCCN(CCN1CCCC1)S(=O)(=O)c1ccc(-c2ccc([N+](=O)[O-])cc2)cc1 — within 1.5-fold, 63.1 µM
- CCN(CC)CCn1c(=N)n(CCOc2ccccc2)c2ccccc21 — within 1.5-fold, 35.5 µM
- Cc1onc(-c2ccccc2)c1C(=O)N/N=C/c1ccc([N+](=O)[O-])s1 — within 1.5-fold, 39.8 µM
- CC(C)(C)NCc1cc(Br)ccc1OC1CCCC1 — within 1.5-fold, 44.7 µM
- CC(Cc1ccccc1Sc1ccc(O)cc1)N(C)C (stereo not drawn) — 1.6-fold lower, 31.6 µM
- CCOC(=O)N1CCC(N2Cc3cccc(C(=O)Nc4ccc(CC)cc4)c3C2=O)CC1 — within 1.5-fold, 44.7 µM
- Fc1ccc([C@@H]2CCNC[C@H]2COc2ccc3c(c2)OCO3)cc1 — within 1.5-fold, 44.7 µM
- S=C1N(c2ccccc2)C(c2ccc(Cl)cc2)N2CCCN12 (stereo not drawn) — 2.8-fold lower, 17.8 µM
- Cc1cccc2sc(N(CCCN(C)C)C(=O)c3ccco3)nc12 — within 1.5-fold, 70.8 µM
- CC1CCCN1CC#CC(O)(c1ccccc1)c1ccccc1 (stereo not drawn) — 4.5-fold lower, 11.2 µM
- CN(C)C(C)(C)C#CC(O)(c1ccccc1)c1ccccc1 — within 1.5-fold, 39.8 µM
- NCCCn1c(C(=O)c2ccc(Cl)cc2)c2ccc(C(F)(F)F)cc2[n+]1[O-] — within 1.5-fold, 44.7 µM
- CCN1CCN(c2nc3ccccc3nc2C(C#N)C(=O)OCc2ccccc2)CC1 (stereo not drawn) — within 1.5-fold, 70.8 µM
- O=[N+]([O-])c1cc([N+](=O)[O-])c2c(=Nc3ccccc3)n(-c3ccccc3)n(O)c2c1 — the same, 50.1 µM
- Cc1cc(-n2cccn2)ccc1CN1CCN(CC(C)C)C(CCO)C1 (stereo not drawn) — 4.5-fold lower, 11.2 µM
- O=C(OCCN1CCCCC1)C1(c2ccccc2)CCCC1 — 5.6-fold lower, 8.91 µM
- CCN(CC)CCC#CC(O)(c1ccccc1)c1ccccc1 — 3.6-fold lower, 14.1 µM
- CN(C)c1ccc(C2N(C)C(=O)c3ccccc3N2C)cc1 (stereo not drawn) — 1.6-fold higher, 79.4 µM
- Cc1cccc2sc(N(CCCN(C)C)C(=O)c3ccc(Cl)s3)nc12 — within 1.5-fold, 70.8 µM
- CCCn1c(=N)c(C(=O)NC2CCCC2)cc2c(=O)n3cccc(C)c3nc21 — within 1.5-fold, 44.7 µM
- CCN(CC)CC(=O)N1c2ccccc2Sc2ccc(Cl)cc21 — within 1.5-fold, 44.7 µM
- COC(=O)c1[nH]c2ccccc2c1NC(=O)CN1CCN(C/C=C/c2ccccc2)CC1 — the same, 50.1 µM
- CCCCCCCCCCCCn1ccc(=N)cc1 — within 1.5-fold, 35.5 µM
- Cc1ccc(-c2nc(C(=O)NCCCN3CCOCC3)cc3c2[nH]c2ccccc23)cc1 — the same, 50.1 µM
- CCOCCN1CCN(C2c3ccccc3CSc3ccccc32)CC1 (stereo not drawn) — the same, 50.1 µM
- CCN(CC)CCCOC(=O)C(c1ccccc1)c1ccccc1 — 16-fold lower, 3.16 µM
- CCOC(=O)N1CCC(N2CCN(CCC(C)C)C(CCO)C2)CC1 (stereo not drawn) — 3.6-fold lower, 14.1 µM
- CCn1c2c(c(=N)c3ccccc31)CCC2 — the same, 50.1 µM
- Cc1c(C(=O)OCCN2CCCCC2)oc2ccccc12 — 2-fold lower, 25.1 µM
- Nc1nc(Nc2cccc(F)c2)nc2ccccc12 — within 1.5-fold, 39.8 µM
- CCN(CC)CCn1c(NC(=O)c2ccccc2O)nc2ccccc21 — 1.6-fold lower, 31.6 µM
- N#CC(c1cccc(Cl)c1)c1ccc2c(C(F)(F)F)cc(C(F)(F)F)nc2n1 (stereo not drawn) — 1.6-fold lower, 31.6 µM
- Cc1c(CCCN)c2ccccc2n1Cc1ccccc1 — within 1.5-fold, 70.8 µM
- CCCC[n+]1ccc(-c2nc3ccc([N+](=O)[O-])cc3[nH]2)cc1 — within 1.5-fold, 56.2 µM
- COC(=O)c1ccc(CN2CCN(C3CCCC3)C(CCO)C2)cc1 (stereo not drawn) — within 1.5-fold, 35.5 µM
- CCN(CC)CCNC(=O)c1nn(-c2ccc(C)cc2)c(=O)c2c1c1ccccc1n2C — 1.6-fold higher, 79.4 µM
- Cc1ccc2c(c1)NC(=O)C(CC(=O)Nc1ccc(CN3CCC(C)CC3)cc1)O2 (stereo not drawn) — 13-fold lower, 3.98 µM
- COc1ccc(-n2nc(C(=O)c3cccs3)cc(-c3nc4ccccc4[nH]3)c2=N)cc1 — the same, 50.1 µM
- CC(C)CC1CCCCC1OC(=O)C[N+]1(C)CCCCC1 (stereo not drawn) — 3.2-fold lower, 15.8 µM
- CN(C)CCNc1c2c(c(C#N)c3nc4ccccc4n13)CCCC2 — 1.6-fold higher, 79.4 µM
- Cc1cc(C)c2nc(C)cc(Nc3ccc(C(=O)N4CCOCC4)cc3)c2c1 — 1.6-fold higher, 79.4 µM
- CC(NC(=O)Nc1nnc(C(F)(F)F)s1)(C(F)(F)F)C(F)(F)F — 2.2-fold lower, 22.4 µM
- OC(C#CCCN1CCCCC1)(c1ccccc1)c1ccccc1 — within 1.5-fold, 39.8 µM
- Cn1c2c(c(=O)n(C)c1=O)C(C(F)(F)F)(C(F)(F)F)N=C(c1ccc(Cl)cc1)N2 — 6.3-fold lower, 7.94 µM
- C[N+]1(C)C2CCC1CC(OC(=O)C(CO)c1ccccc1)C2 (stereo not drawn) — 720-fold lower, 0.07 µM
- CC(Cc1ccccc1Sc1ccccc1O)N(C)C (stereo not drawn) — within 1.5-fold, 39.8 µM
- S=C1N(c2ccccc2)C(c2ccc(Br)cc2)N2CCCN12 (stereo not drawn) — 2.8-fold lower, 17.8 µM
- CN1CCN(CCC(C#N)(c2ccccc2)c2ccccc2)CC1 — within 1.5-fold, 39.8 µM
- c1ccc2c(c1)CC1CNCc3cccc(c31)S2 (stereo not drawn) — within 1.5-fold, 70.8 µM
- Cc1ccc(C23CC4CC(CC(CN)(C4)C2)C3)cc1 — within 1.5-fold, 39.8 µM
- C[N+]1(CC#CC(O)(c2ccccc2)c2ccccc2)CCCC1 — 22-fold lower, 2.24 µM
- CN1CCC(OC(c2ccccc2)c2ccccc2)CC1 — 3.2-fold lower, 15.8 µM
- N#Cc1c(-n2cccc2/C=N/O)sc2c1CCCC2 — within 1.5-fold, 39.8 µM
- CCCC(CCC)C(=O)OC[N+](C)(C)CCOC(=O)C(O)(c1ccccc1)C1CCCC1 (stereo not drawn) — 28-fold lower, 1.78 µM
- Cc1cc(-n2cccn2)ccc1CN1CCN(C2CCCC2)C(CCO)C1 (stereo not drawn) — 100-fold lower, 0.5 µM
- CCN1C(=O)/C(=C\N2CCCCCC2)SC1=S — 3.6-fold lower, 14.1 µM
- CN1[C@@H]2CC[C@H]1CC(OC(=O)C(CO)c1ccccc1)C2 (stereo partly drawn) — 630-fold lower, 0.08 µM
- CC(C)(C)c1ccc(Cn2c(=N)n(CC(O)c3ccco3)c3ccccc32)cc1 (stereo not drawn) — within 1.5-fold, 44.7 µM
- OC(CCN1CCCC1)(c1ccccc1)C1CCCCC1 (stereo not drawn) — 11-fold lower, 4.47 µM
- Cc1cccc(-c2nc(NCCCN(C)C)c3ccccc3n2)c1 — within 1.5-fold, 70.8 µM
- Nc1cccc2nc3ccccc3cc12 — the same, 50.1 µM
- C[N+]12CCC(CC1)C(=C(c1ccccc1)c1ccccc1)C2 — 11-fold lower, 4.47 µM
- O=C(CCCOc1ccc(Cl)cc1Cl)N1CCN(c2ccccn2)CC1 — within 1.5-fold, 63.1 µM
- Nc1nc(N2CCN(C/C=C/c3ccccc3)CC2)nc2ccccc12 — within 1.5-fold, 44.7 µM

Cc1nc2c(o1)CCc1ccccc1C2N1CCN(C)CC1 (stereo not drawn) was tested, and the IC50 was 0.79 µM and 3.16 µM.
